ChEMBL document CHEMBL3885861, “Open TG-GATES”

Species: Rattus norvegicus
Assay: Open TG-GATES - Regimen: Single
Type: toxicity, organism-based, Sprague-Dawley
Set-up: regimen Single, gender Male, age 6 weeks
Settings: in vivo, po, 300 mg/kg, route gavage, dose level Middle; for APTT / Bas / Eos / Fbg / Hb / Ht / Lym / MCH / MCHC / MCV / Mono / Neu / PT / Plat / RBC / Ret / WBC: tissue Blood; for KIDNEY_L / KIDNEY_R / KIDNEY_TOTAL: tissue Kidney; for LIVER: tissue Liver; for A/G / ALP / ALT / AST / BUN / CRE / Ca / Cl / DBIL / GLC / IP / LDH / Na / PL / RALB / TBIL / TC / TG / TP / gamma-GTP: tissue Plasma

Compound `NC(N)=Nc1nc(CSCCC(N)=NS(N)(=O)=O)cs1` [FAMOTIDINE] has a TERMINAL_BW (3 h) of 215.2 g, an APTT (3 h) of 21.3 s and a Bas (3 h) of 0%. The Eos (3 h) was 1%, the Fbg (3 h) was 213.2 mg/dL and the Hb (3 h) was 13.4 g/dL. The Ht (3 h) was 37.9%, the Lym (3 h) was 76.2% and the MCH (3 h) was 22.4 pg. It also gave an MCHC (3 h) of 35.3%, an MCV (3 h) of 63.4 fL and a Mono (3 h) of 2.8%. The Neu (3 h) was 17.8%, the PT (3 h) was 12.6 s and the Plat (3 h) was 116.7 x10_4/uL. For the same compound, the RBC (3 h) was 598 x10_4/ul, the Ret (3 h) was 7.6% and the WBC (3 h) was 82 x10_2/uL. For the same compound, the KIDNEY_L (3 h) was 1 g, the KIDNEY_R (3 h) was 1 g and the KIDNEY_TOTAL (3 h) was 1.9 g. The LIVER (3 h) was 10.1 g, the A/G (3 h) was 1.6 and the ALP (3 h) was 814.6 IU/L. For the same compound, the ALT (3 h) was 34.2 IU/L, the AST (3 h) was 66.4 IU/L and the BUN (3 h) was 9.6 mg/dL. It also gave a CRE (3 h) of 0.4 mg/dL, a Ca (3 h) of 10.6 mg/dL and a Cl (3 h) of 104.2 meq/L. It also gave a DBIL (3 h) of 0.07 mg/dL, a GLC (3 h) of 197.8 mg/dL and an IP (3 h) of 9 mg/dL. The LDH (3 h) was 230 IU/L, the Na (3 h) was 140.8 meq/L and the PL (3 h) was 146 mg/dL. The RALB (3 h) was 3.4 g/dL, the TBIL (3 h) was 0.1 mg/dL and the TC (3 h) was 77.2 mg/dL. It also gave a TG (3 h) of 69.4 mg/dL, a TP (3 h) of 5.5 g/dL and a gamma-GTP (3 h) of 1.2 IU/L. The TERMINAL_BW (6 h) was 211.7 g, the APTT (6 h) was 18.9 s and the Bas (6 h) was 0%. The Eos (6 h) was 1%, the Fbg (6 h) was 204.6 mg/dL and the Hb (6 h) was 13.5 g/dL. For the same compound, the Ht (6 h) was 37.8%, the Lym (6 h) was 75% and the MCH (6 h) was 22.3 pg. The MCHC (6 h) was 35.6%, the MCV (6 h) was 62.7 fL and the Mono (6 h) was 2.4%. The Neu (6 h) was 18.4%, the PT (6 h) was 12.8 s and the Plat (6 h) was 109.6 x10_4/uL. The RBC (6 h) was 604.4 x10_4/ul, the Ret (6 h) was 7.4% and the WBC (6 h) was 97.9 x10_2/uL. It also gave a KIDNEY_L (6 h) of 1 g, a KIDNEY_R (6 h) of 0.9 g and a KIDNEY_TOTAL (6 h) of 1.9 g. It also gave an LIVER (6 h) of 9 g, an A/G (6 h) of 1.6 and an ALP (6 h) of 896.8 IU/L. For the same compound, the ALT (6 h) was 32.8 IU/L, the AST (6 h) was 66.8 IU/L and the BUN (6 h) was 8.4 mg/dL. The CRE (6 h) was 0.4 mg/dL, the Ca (6 h) was 10.4 mg/dL and the Cl (6 h) was 103.8 meq/L. The DBIL (6 h) was 0.07 mg/dL, the GLC (6 h) was 195 mg/dL and the IP (6 h) was 9 mg/dL. The LDH (6 h) was 177.2 IU/L, the Na (6 h) was 140.8 meq/L and the PL (6 h) was 131.2 mg/dL. The RALB (6 h) was 3.2 g/dL, the TBIL (6 h) was 0.1 mg/dL and the TC (6 h) was 73.2 mg/dL. The TG (6 h) was 46.2 mg/dL, the TP (6 h) was 5.2 g/dL and the gamma-GTP (6 h) was 2 IU/L. For the same compound, the TERMINAL_BW (9 h) was 209.6 g, the APTT (9 h) was 18.9 s and the Bas (9 h) was 0%. It also gave an Eos (9 h) of 0.8%, a Fbg (9 h) of 225.4 mg/dL and a Hb (9 h) of 13.4 g/dL. For the same compound, the Ht (9 h) was 37.4%, the Lym (9 h) was 76.8% and the MCH (9 h) was 22.3 pg. It also gave an MCHC (9 h) of 35.7%, an MCV (9 h) of 62.3 fL and a Mono (9 h) of 2.4%. The Neu (9 h) was 19.2%, the PT (9 h) was 12.1 s and the Plat (9 h) was 117.6 x10_4/uL. The RBC (9 h) was 601.6 x10_4/ul, the Ret (9 h) was 7.2% and the WBC (9 h) was 77.6 x10_2/uL. The KIDNEY_L (9 h) was 0.9 g, the KIDNEY_R (9 h) was 1 g and the KIDNEY_TOTAL (9 h) was 1.9 g. For the same compound, the LIVER (9 h) was 8.7 g, the A/G (9 h) was 1.6 and the ALP (9 h) was 898 IU/L. For the same compound, the ALT (9 h) was 26.6 IU/L, the AST (9 h) was 59 IU/L and the BUN (9 h) was 10 mg/dL. The CRE (9 h) was 0.4 mg/dL, the Ca (9 h) was 10.3 mg/dL and the Cl (9 h) was 103.6 meq/L. For the same compound, the DBIL (9 h) was 0.064 mg/dL, the GLC (9 h) was 195.2 mg/dL and the IP (9 h) was 8.8 mg/dL. For the same compound, the LDH (9 h) was 125 IU/L, the Na (9 h) was 140.2 meq/L and the PL (9 h) was 130 mg/dL. For the same compound, the RALB (9 h) was 3.3 g/dL, the TBIL (9 h) was 0.1 mg/dL and the TC (9 h) was 67.8 mg/dL. For the same compound, the TG (9 h) was 47.6 mg/dL, the TP (9 h) was 5.4 g/dL and the gamma-GTP (9 h) was 0.6 IU/L. The TERMINAL_BW (24 h) was 227 g, the APTT (24 h) was 20.8 s and the Bas (24 h) was 0%. For the same compound, the Eos (24 h) was 1%, the Fbg (24 h) was 225.8 mg/dL and the Hb (24 h) was 13.4 g/dL. It also gave a Ht (24 h) of 37.6%, a Lym (24 h) of 78.2% and an MCH (24 h) of 22.4 pg. The MCHC (24 h) was 35.6%, the MCV (24 h) was 63.1 fL and the Mono (24 h) was 3.8%. It also gave a Neu (24 h) of 15.6%, a PT (24 h) of 12.1 s and a Plat (24 h) of 114.2 x10_4/uL. The RBC (24 h) was 596.2 x10_4/ul, the Ret (24 h) was 6.6% and the WBC (24 h) was 78.3 x10_2/uL. The KIDNEY_L (24 h) was 1 g, the KIDNEY_R (24 h) was 1 g and the KIDNEY_TOTAL (24 h) was 2 g. For the same compound, the LIVER (24 h) was 11 g, the A/G (24 h) was 1.5 and the ALP (24 h) was 1146.8 IU/L. It also gave an ALT (24 h) of 33.2 IU/L, an AST (24 h) of 62.8 IU/L and a BUN (24 h) of 13.2 mg/dL. It also gave a CRE (24 h) of 0.4 mg/dL, a Ca (24 h) of 10.5 mg/dL and a Cl (24 h) of 103.6 meq/L. It also gave a DBIL (24 h) of 0.074 mg/dL, a GLC (24 h) of 194.2 mg/dL and an IP (24 h) of 8 mg/dL. It also gave an LDH (24 h) of 176.6 IU/L, a Na (24 h) of 140.6 meq/L and a PL (24 h) of 153 mg/dL. For the same compound, the RALB (24 h) was 3.3 g/dL, the TBIL (24 h) was 0.1 mg/dL and the TC (24 h) was 82.8 mg/dL. The TG (24 h) was 86.8 mg/dL, the TP (24 h) was 5.6 g/dL and the gamma-GTP (24 h) was 0.8 IU/L.
